We go through three compounds from patent US20210252173A1, “STABILIZED POLYUNSATURATED COMPOUNDS AND USES THEREOF” (RETROTOPE, INC., priority 2018, published 2021).

The structures appear in SMILES notation. Like-named read-outs stand apart in the source and are kept apart here.

Data set [1] relates to patient with late onset Tay-Sachs disease (LOTS). Description: Case study in a single patient with late onset Tay-Sachs disease: ADL, 25FWT, 6MWD, tolerability. In kind it is in vivo, human. As to conditions: 2.7 g BID; for Composite ADL Score: baseline 0; for 25FWT: baseline 12.7. The source says: In this example, a case study of using 11,11-D2-linoleic acid ethyl ester to treat a single patient with late onset Tay-Sachs disease (LOTS) and the study results was reported.

The conditions of data set [2]: human, in vivo. The protocol: Design/Methods: 11,11-D2-linoleic acid ethyl ester was administered to the patient at 2.7 g (BID) and periodic repeat assessments including baseline measurement of PK, activities of daily living (ADL), 25 foot walk time (25FWT), and 6 minute walk distance (6MWD) were made. In particular, ADLs were measured individually on a scale of 0-5 across a 12 element panel representing speech, strength, coordination, etc.

Data set [3] in a line: in vivo. Also on record: species or system mice and rats. Particulars: rat. As to the method:
Single- and repeat-dose studies are conducted in mice and rats using both oral gavage and dietary administration of substituted compounds as described herein (e.g., D-PUFA and ester thereof) for up to 26 weeks. […] The NOAELs established in the 8- and 26-week studies correspond to an average consumption of the substituted compounds studied in the amount of ˜362 and ˜452 mg/kg, respectively. The high dose diets in these studies contained no natural LA. […] This is consistent with the substituted compounds as described herein (e.g., D-PUFA and ester thereof) (di-deutero linoleic acid) being, for dietary purposes, equivalent to and biologically interchangeable with normal dietary LA as a sole source of LA by the rats in this study. […] The body weights, organ weights, percent of each organ composed of PUFAs, distribution of PUFA species in each tissue, and the PUFA composition of red blood cells are not changed versus controls.

Data set [4] relates to patient with Infantile Neuroaxonal Dystrophy (INAD), mutation in both copies of the PLA2G6 gene. In kind it is in vivo, human. The source says:
(§1) A study in the fatal neurodegenerative disease, Infantile Neuroaxonal Dystrophy (INAD) was initiated in March 2017. At study onset, the subject with a genetic mutation in both copies of the PLA2G6 gene, was mostly unresponsive to stimuli and unable to perform virtually any activity. All normal development milestones previously acquired had been lost. Prognosis was that a feeding tube would be required in the near term progression of the disease. The patient received dosing of a D-PUFA (11,11-D2-linoleic acid), 1.8 g twice a day, for a six month trial under an Expanded Access (Compassionate Use) protocol. As they were unable to swallow a pill, soft gels containing the D-PUFA were placed in warm liquid (water or milk), pierced with a fork, and the active oil pressed into the liquid, which was then soaked into food or a cookie, and administered.
FIG. 1 summarizes the baseline and one year treatment status of the patient (degree of impairment: (0) for severely impaired, (+1) for moderately impaired, (+2) for mildly impaired or no impairment).
After 2 months on drug, […] regained sufficient bulbar function to terminate syringe feeding of liquids and returned to drinking from a child's sippy cup.
(§2) One month and three month plasma level of deuterated polyunsaturated fatty acid was at steady state at approximately 44% total (dietary plus modified) linoleic acid, indicating excellent uptake and absorption of a therapeutic level of drug (>˜10-15%). Deuterated arachidonic acid was observed as present in the plasma at 0.6% and 3.0% of total arachidonic acid at month one and three months; respectively.
INAD is a strictly progressive disease, only worsening with time. Stabilization of regressions and recovery of lost milestones indicated effectiveness of the test treatment in a single, severely affected INAD patient.

For data set [5] the following is noted: female, human, in vivo.
Source text: as §1, §2

The subject of data set [6] is murine FRDA cell model. Particulars: cited from earlier work.
The subject of data set [7] is human fibroblast FRDA model. As to conditions: cited from earlier work.
For data set [8], the system named is yeast model of FRDA. Particulars: cited from earlier work.
Data set [9] has as its system murine model of FRDA. Particulars: Abeti et al. 2016; cited from earlier work.
Data set [10] deals with H9C2 myoblasts. As to conditions: other oxidative stress paradigms; cited from earlier work.

With `[2H]C([2H])(/C=C\CCCCC)/C=C\CCCCCCCC(=O)OCC` [11,11-D2-linoleic acid ethyl ester], in data set [1], the disease progression entry was “Early efficacy signs of inhibition of disease progression and some regression were seen”; the tolerability / toxicities result is “well tolerated with no toxicities reported”. For the same compound, in [1] (30 d), the “# of ADLs improved” value is recorded as 6 and the 25FWT was found to be 12.1 s. Further, the “Composite ADL Score” value in data set [1] (30 d, 12 element panel, scale 0-5) is given as “+6”. For the same compound, in [1] (120 d), the “# of ADLs improved” value worked out at 8, the “Composite ADL Score” value is given as “+9” and the 25FWT amounted to 11.2 s. Also, in [2], the “D-LA(%) D-LA + H-LA Plasma” value is 36% and the “D-LA(%) D-LA + H-LA RBC” value amounted to 28%.

Consider `[2H]C([2H])(/C=C\CCCCC)/C=C\CCCCCCCC(=O)O` [11,11-D2-linoleic acid, 11,11-Dideutero-cis,cis-9,12-Octadecadienoic acid], for which, in [3], the no-observed-adverse-effect level (NOAEL) (in general, the highest tested level that showed no adverse finding) at 8 weeks was about 362 mg/kg and the NOAEL at 26 weeks was about 452 mg/kg. Further, the “progression of disease, clinical examination” value in [4] (3 months, since start of trial, n=1) was “no progression of disease”. In addition, the “qualitative measures in videotaped sessions (eye tracking, responsiveness, head control, lifting, reaching and grasping)” value in data set [4] (after 6 months) is “improved in qualitative measures”. Besides, in data set [4] (human, in vivo), the “drug related adverse events” value was “no drug related adverse events of any sort reported”; the safety and tolerability result is “safe and well-tolerated”. In addition, in data set [4] (parents' report at 4 months), the ability to grasp result is “regained ability to grasp spoon and hold”; the constipation result is recorded as “constipation resolved”; the eating result was “can eat (chew and swallow) food such as banana”; the “responsiveness to verbal requests” value was “newly responsive to verbal requests during therapy”. In addition, the salivation down in data set [4] (parents' report at 4 months) is recorded as 99%. Also, the muscle strength entry in data set [4] (parents' report at 4 months, grasping and lifting rattle) is “better muscle strength”. The ability to swallow entry in [4] (parents' report at 4 months, vs. syringe feeding) is given as “regained ability to swallow using sipper cup”. The overall patient status entry in data set [4] (starting within a month of dosing until one year) is “the patient has improved”. Also, in data set [5] (1 month), the “deuterated arachidonic acid in plasma, of total arachidonic acid” value turned out to be 0.6%. Besides, the “deuterated arachidonic acid in plasma, of total arachidonic acid” value in [5] (3 months) came out at 3.0%. For the same compound, the “time to significant plasma levels and red blood cell (RBC) membrane incorporation” value in [2] is given as at most 1 month. Moreover, the cell viability result in data set [6] is “protect cells from loss of viability”. For the same compound, the cell viability result in [7] is “rescue cells from loss of viability”.

With `[2H]C([2H])(/C=C\CC)/C=C\C([2H])([2H])/C=C\CCCCCCCC(=O)O` [D4-ALA, 11,11,14,14-Tetradeutero-cis,cis,cis-9,12,15-Octadecatrienoic acid], the cell viability entry in data set [6] was “protect cells from loss of viability”; in [7], “rescue cells from loss of viability”. Besides, the lipid peroxidation entry is “decreased lipid peroxidation” in data set [8] and “prevent lipid peroxidation” in data set [9]. For the same compound, in data set [10], the “protection against oxidative stress” value is given as “protective against oxidative stress”.
